Experimental data: patent US20120270769A1, “METHODS OF USING MACROCYCLIC INHIBITORS OF SERINE PROTEASE ENZYMES” (priority 2009, published 2012)

Columns and labels:
human matriptase = target: T1, human matriptase (Homo sapiens, UniProt Q9Y5Y6); assay: Assay for inhibition of matriptase (fluorogenic AMC substrate); format: biochemical; conditions: for Velocity (FU/min): residual matriptase velocity with test compound, substrate Boc-Gln-Ala-Arg-AMC, method gives 10 μM for initial screening, lower = more inhibition; for Ki: calculated from velocity by nonlinear regression, competitive inhibition model (GraphPad Prism 5)
T1 sequence (Q9Y5Y6 1-855): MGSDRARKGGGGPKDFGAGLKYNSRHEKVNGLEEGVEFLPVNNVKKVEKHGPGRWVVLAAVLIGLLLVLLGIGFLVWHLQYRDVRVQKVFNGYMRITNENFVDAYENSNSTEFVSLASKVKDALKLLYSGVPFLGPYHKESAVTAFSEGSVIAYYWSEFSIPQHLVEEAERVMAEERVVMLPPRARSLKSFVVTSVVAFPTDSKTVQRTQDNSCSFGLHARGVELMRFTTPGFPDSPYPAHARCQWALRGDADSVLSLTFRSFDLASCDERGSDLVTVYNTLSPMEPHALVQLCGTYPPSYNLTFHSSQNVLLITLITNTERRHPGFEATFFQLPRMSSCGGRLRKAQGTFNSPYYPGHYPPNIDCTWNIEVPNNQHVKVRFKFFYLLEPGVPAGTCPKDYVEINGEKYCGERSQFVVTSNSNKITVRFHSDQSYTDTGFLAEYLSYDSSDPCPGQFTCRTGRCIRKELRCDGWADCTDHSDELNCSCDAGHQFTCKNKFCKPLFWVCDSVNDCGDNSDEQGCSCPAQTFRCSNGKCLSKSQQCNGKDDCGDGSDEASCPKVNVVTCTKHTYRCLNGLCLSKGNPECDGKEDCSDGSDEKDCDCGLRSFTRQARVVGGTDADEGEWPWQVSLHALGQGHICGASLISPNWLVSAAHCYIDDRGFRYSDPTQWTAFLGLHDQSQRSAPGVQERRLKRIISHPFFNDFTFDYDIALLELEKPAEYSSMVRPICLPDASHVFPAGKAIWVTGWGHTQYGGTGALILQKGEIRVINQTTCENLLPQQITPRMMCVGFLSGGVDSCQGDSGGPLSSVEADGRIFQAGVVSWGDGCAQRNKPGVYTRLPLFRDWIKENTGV
Excerpt: The following describes an assay for matriptase as a representative serine protease and is based upon reported methods. (Désilets, A.; Longpré, J.-M.; Beaulieu, M.-E.; Leduc, R. FEBS Lett. 2006, 580, 2227-2232.) Similar assays are applicable and available for other serine proteases.
Enzyme activities were monitored by measuring the release of fluorescence from AMC-coupled peptides (excitation, 360 nm; emission, 441 nm) in a FLX-800 TBE microplate reader (Bio-Tek Instruments, Winooski, Vt., USA). The purified human matriptase was active site titrated with the burst titrant 4-methylumbelliferyl-p-guanidino benzoate (MUGB). Enzymatic assays with matriptase were performed in Tris HCl 100 mM containing 500 µg/mL BSA at pH 9. Human soluble furin was expressed, purified, titrated and assayed as described in the literature (Denault, J. B.; Lazure, C.; Day, R; Leduc, R. Protein Expr. Purif. 2000, 19, 113-124.) The purified HAT protein was active-site titrated with MUGB. Assays with HAT were performed in 50 mM Tris-HCl at pH 8.6.
Enzymes were diluted to concentrations ranging from 4 to 12.5 nM for furin, from 2 to 7 nM for matriptase and 20 pM for HAT and incubated with either 10 μM (for initial screening) […] or appropriate dilutions (for kinetic analysis), for example 0, 500, 1000, 2000 nM or 0, 250, 500, 1000, 2500, 5000 nM, of the test compound for 15 min at RT. Residual enzyme activity was measured by following the hydrolysis of a fluorogenic substrate (4 μM Boc-Arg-Val-Arg-Arg-AMC for furin, Boc-Gln-Ala-Arg-AMC for matriptase and 4 μM Boc-Val-Pro-Arg-AMC for HAT) (Bachem Bioscience, King of Prussia, Pa., USA). Saturation curves were performed in the presence of increasing concentrations of test compounds. Data from three independent experiments or more were typically averaged and residual velocities were plotted as a function of test compound concentration. Data were fitted by non-linear regression analysis to Equation (1) (Bieth, J. G. Methods Enzymol. 1995, 248, 59-84.) using the Enzfitter software (Biosoft, Ferguson, Mo., USA).
vi/v0=1−{([E]0+[I]0+Ki(app))−(([E]0+[I]0+Ki(app))^2−4[E]0[I]0)^1/2}/2[E]0 Equation (1): […]
where v0 and vi are the steady-state rates of substrate hydrolysis in the absence and presence of inhibitor, respectively, [E]0, the initial concentration of enzyme, [I]0, the initial concentration of inhibitor and Ki(app) the substrate-dependent equilibrium dissociation constant. The substrate-independent constant Ki was calculated using Equation (2) (Bieth, J. G. Methods Enzymol. 1995, 248, 59-84.),
Kt=Ki(app)(1+[S]0/Km) Equation (2): […]
The table presents results for matriptase inhibition for representative compounds of the invention.
Ki's can be calculated from the velocity using nonlinear regression analysis. The model used is a competitive enzyme inhibition equation where KmObs=Km*(1+[I]/Ki) and Y=Vmax*X/(KmObs+X). X is the substrate concentration. Y the velocity.

tumor metastasis = conditions: cited from earlier work

Row | SMILES | Velocity (FU/min) (human matriptase) | Ki (human matriptase) | activity in an in vivo model of tumor metastasis (tumor metastasis)
1 | C[C@@H]1C(=O)N[C@H](Cc2ccc(C(N)=O)cc2)C(=O)NCCCc2ccc(C(=N)N)cc2OCCN[C@@H](C2CC2)C(=O)N1C [Compound 499] | 937 FU/min | – | –
2 | C[C@@H]1C(=O)N[C@H](Cc2ccc(C(=N)N)cc2)C(=O)NCCCc2ccccc2OCCN[C@@H](C2CC2)C(=O)N1C [Compound 464] | 1875 FU/min | – | –
3 | C[C@@H]1C(=O)N[C@H](CCCNC(N)=O)C(=O)NCCCc2ccc(F)cc2OCCN[C@@H](C2CC2)C(=O)N1C [Compound 491] | 2440 FU/min | – | –
4 | C[C@@H]1C(=O)N[C@H](Cc2ccc(C(=N)N)cc2)C(=O)NCCCC2CCCCC2OCCN[C@@H](C2CC2)C(=O)N1C (stereo partly drawn) [Compound 480] | 1875 FU/min | – | –
5 | C[C@@H]1C(=O)N[C@H](Cc2ccc(C(=N)N)cc2)C(=O)NC/C=C/c2ccccc2OCCN[C@@H](C2CC2)C(=O)N1C [Compound 465] | 1125 FU/min | – | –
6 | C[C@@H]1C(=O)N[C@H](Cc2c[nH]cn2)C(=O)NCCCc2ccc(F)cc2OCCN[C@@H](C2CC2)C(=O)N1C [Compound 493] | 2700 FU/min | – | –
7 | C[C@@H]1C(=O)N[C@H](CCCNC(=N)N)C(=O)NCCCc2ccc(F)cc2OCCN[C@@H](C2CC2)C(=O)N1C [Compound 488] | 2250 FU/min | – | –
8 | C[C@@H]1C(=O)N[C@H](Cc2ccncc2)C(=O)NCCCc2ccc(F)cc2OCCN[C@@H](C2CC2)C(=O)N1C [Compound 495] | 2700 FU/min | – | –
9 | C[C@@H]1C(=O)N[C@H](Cc2cscn2)C(=O)NCCCc2ccc(F)cc2OCCN[C@@H](C2CC2)C(=O)N1C [Compound 496] | 2700 FU/min | – | –
10 | C[C@@H]1C(=O)N[C@H](Cc2ccc(C(=N)N)cc2)C(=O)NCCc2cccc(c2)CN[C@@H](C2CC2)C(=O)N1C [Compound 473] | 2375 FU/min | – | –
11 | C[C@@H]1C(=O)N[C@H](CCC(N)=O)C(=O)NCCCc2ccc(F)cc2OCCN[C@@H](C2CC2)C(=O)N1C [Compound 490] | 2440 FU/min | – | –
12 | C[C@@H]1CN[C@@H](C2CC2)C(=O)N(C)[C@H](C)C(=O)N[C@H](Cc2ccc(C(=N)N)cc2)C(=O)NCCCc2ccccc2O1 [Compound 459] | 140 FU/min | 245 nM | –
13 | C[C@@H]1C(=O)N[C@H](Cc2cccnc2)C(=O)NCCCc2ccc(F)cc2OCCN[C@@H](C2CC2)C(=O)N1C [Compound 494] | 2125 FU/min | – | –
14 | C[C@@H]1C(=O)N[C@H](CCCN)C(=O)NCCCc2ccc(F)cc2OCCN[C@@H](C2CC2)C(=O)N1C [Compound 487] | 2500 FU/min | – | –
15 | C[C@@H]1C(=O)N[C@H](Cc2ccc(C(=N)N)cc2)C(=O)NCCCc2ccc(F)cc2OCCN[C@H](C2CC2)C(=O)N1C [Compound 456] | 2250 FU/min | – | –
16 | C[C@@H]1C(=O)N[C@H](Cc2ccc(C(=N)N)cc2)C(=O)NCCc2ccccc2OCCN[C@@H](C2CC2)C(=O)N1C [Compound 481] | 1875 FU/min | – | –

Row | SMILES | Velocity (FU/min) (human matriptase) | Ki (human matriptase) | activity in an in vivo model of tumor metastasis (tumor metastasis)
17 | C[C@@H]1CN[C@@H](C2CC2)C(=O)N(C)[C@H](C)C(=O)N[C@H](Cc2ccc(C(N)=O)cc2)C(=O)NCCCc2ccccc2O1 [Compound 498] | 580 FU/min | – | –
18 | C[C@@H]1CN[C@@H](C2CC2)C(=O)N(C)[C@H](C)C(=O)N[C@H](Cc2ccc(C(=N)N)cc2)C(=O)NCCCc2ccc(F)cc2O1 [Compound 458] | 812 FU/min | – | –
19 | C[C@H]1C(=O)N[C@H](Cc2ccc(C(=N)N)cc2)C(=O)NCCCc2ccc(F)cc2OCCN[C@@H](C2CC2)C(=O)N1C [Compound 455] | 2440 FU/min | – | –
20 | C[C@@H]1CCc2ccc(F)cc2OCCN[C@@H](C2CC2)C(=O)N(C)[C@H](C)C(=O)N[C@H](Cc2ccc(C(=N)N)cc2)C(=O)N1 [Compound 457] | 1750 FU/min | – | –
21 | COC(=O)NC(CCC(=O)O)(Cc1cccc(C(=N)N)c1)C(=O)NCC(=O)N[C@H](C=O)CCCNC(=N)N (stereo partly drawn) [CVS-3983] | – | – | has shown activity
22 | C[C@@H]1C(=O)N[C@H](CCCCNC(N)=O)C(=O)NCCCc2ccc(F)cc2OCCN[C@@H](C2CC2)C(=O)N1C [Compound 492] | 2440 FU/min | – | –
23 | C[C@@H]1C(=O)N[C@H](Cc2ccc(C(=N)N)cc2)C(=O)NCCCc2ccc(C(=N)N)cc2OCCN[C@@H](C2CC2)C(=O)N1C [Compound 461] | 812 FU/min | – | –
24 | C[C@@H]1C(=O)N[C@H](Cc2ccc(C(=N)N)cc2)C(=O)NC/C=C/c2cccc(c2)OCCN[C@@H](C2CC2)C(=O)N1C [Compound 482] | 2500 FU/min | – | –
25 | C[C@@H]1C(=O)N[C@H](Cc2ccc(C(=N)N)cc2)C(=O)NCCCc2ccc(F)cc2OCCN[C@@H](C2CC2)C(=O)N1C [Compound 451] | 1590 FU/min | 1460 nM | –
26 | C[C@@H]1C(=O)N[C@@H](Cc2ccc(C(=N)N)cc2)C(=O)NCCCc2ccc(F)cc2OCCN[C@@H](C2CC2)C(=O)N1C [Compound 454] | 2190 FU/min | – | –
27 | C[C@@H]1C(=O)N[C@H](CCCCN)C(=O)NCCCc2ccc(F)cc2OCCN[C@@H](C2CC2)C(=O)N1C [Compound 485] | 2625 FU/min | – | –
28 | C[C@@H]1C(=O)N[C@H](Cc2ccc(C(=N)N)cc2)C(=O)NCCc2ccccc2CCCCN[C@@H](C2CC2)C(=O)N1C [Compound 478] | 2440 FU/min | – | –
29 | C[C@@H]1NCCOc2cc(F)ccc2CCCNC(=O)[C@@H](Cc2ccc(C(=N)N)cc2)NC(=O)[C@@H](C)N(C)C1=O [Compound 467] | 2300 FU/min | – | –
30 | C[C@@H]1C(=O)N[C@H](Cc2ccc(C(=N)N)cc2)C(=O)NCCOc2cccc(c2)OCCN[C@@H](C2CC2)C(=O)N1C [Compound 479] | 2190 FU/min | – | –
31 | C[C@@H]1C(=O)N[C@H](Cc2ccc(C(=N)N)cc2)C(=O)NCc2ccccc2Sc2ccccc2CN[C@@H](C2CC2)C(=O)N1C [Compound 475] | 2125 FU/min | – | –
